Experimental data published in patent publication EP3325012B1, “CINEOLE-CONTAINING COMPOSITION FOR TREATING NOSE POLYPS” (Maria Clementine Martin Klosterfrau Vertriebsgesellschaft …, priority 2015, dated 2017).

Assays:
[1] = test system: allen untersuchten Zellspezies; assay: Vitality/proliferation, summary over all cell species investigated; assay type: cell-based; conditions: 10mM
Method: Erste Vorversuche zum Einfluss von Cineol auf die Progression von Polyposis nasi et sinuum wurden durchgeführt. Hierzu wurden zunächst Einzelzellsuspensionen hergestellt und diese wurden in der Zellkultur über einen Zeitraum von 288 Stunden mit Standardmedium und mit 1mM Cineol inkubiert.
Es wurden weiterführende Untersuchungen durchgeführt zur Analyse des Einflusses von Cineol auf die Vitalität und Proliferation verschiedener permanenter Zelllinien. Hierzu wurden einerseits die zwei HNSCC-Zelllinien und des Weiteren eine Fibroblastenzelllinie verwendet. Diese wurden über einen Zeitraum von 250 Stunden mit verschiedenen Cineol-Konzentrationen kultiviert (1 mM bis 10 mM) und die Vitalität der Zellen wurde jeweils mittels eines MTT-Assays untersucht.
Hierbei zeigte sich ein ähnliches Bild wie in den vorhergegangenen Untersuchungen zum Einfluss von Cineol auf die Vitalität von Polyposis nasi et sinuum-Einzelzellsupensionen, wobei sich jedoch die permanenten Zelllinien erst zu geringfügig späteren Zeitpunkten und bei geringfügig höheren Cineol-Konzentrationen signifikant in ihrer Proliferation beeinflussen ließen. […]

[2] = test system: Patienten mit Polyposis nasi et sinuum; assay type: in vivo, Mensch
Text: Im Rahmen einer klinischen Anwendung erhielten 22 Patienten nach einer Nasennebenhöhlenoperation zusätzlich zu einer Standardmedikation 1,8-Cineol (Soledum forte®), 3-mal 1 Kapsel, über einen Zeitraum von 3 Monaten. Die präoperativen CT-Bilder wurden nach dem Lund-Mackay-Score bewertet. Die Patienten wurden gebeten, ihre Beschwerden mittels eines Fragebogens (SNOT20 - German adapted version) einzuschätzen. 21 von 22 Patienten beendeten die Therapie wie vorgesehen. Ein Patient berichtete über gastrointestinale Nebenwirkungen und brach die Behandlung mit 1,8-Cineol ab. […] Somit war ein gutes Ansprechen auf die zusätzliche medikamentöse Behandlung mit 1,8-Cineol bei einem tolerablen Nebenwirkungsprofil zu beobachten.

Phosphokinasen = assay: Human Phospho-Kinase Antibody Array on nasal epithelial cells; assay type: cell-based, Mensch; conditions: 100 µM, 24 Stunden; epithelial cells from nasal polyps compared with epithelial cells from inferior turbinates
Text: Pflanzliche Medikationen könnten diese Nebenwirkungen reduzieren. In der Naturheilkunde werden ätherische Öle aufgrund ihrer sekretolytischen Eigenschaften zur Behandlung von Menschen eingesetzt, die klinische Verwendung wird jedoch aufgrund von Reizungen der Atemwege nach Inhalation bzw. Aufnahme eingeschränkt. Der Hauptbestandteil von Eukalyptusöl, nämlich 1,8-Cineol, wurde zur Behandlung von akuter und chronischer Bronchitis, Sinusitis und respiratorischen Infekten eingesetzt und allgemein gut vertragen. Bei dem Monoterpen 1,8-Cineol handelt es sich um ein Isoprenoid mit antiinflammatorischen Eigenschaften, welches menschlichen Isoprenoiden, wie Glucocorticoid, ähnelt. Unlängst wurden seitens der Anmelderin neue Eigenschaften des Mechanismus von 1,8-Cineol in Epithelzellen des Nasenpolypengewebes von Patienten mit chronischer Rhinosinusitis entdeckt. Im Rahmen dieser Studien hat die Anmelderin Epithelzellen aus Nasenpolypen und Gewebe der unteren Nasenmuscheln von zahlreichen Patienten isoliert und über einen Zeitraum von 24 Stunden in 100 µM 1,8-Cineol inkubiert. Die Proteine wurden isoliert und die Phosphokinasen mit Hilfe des "Human Phospho-Kinase Antibody Array" von R&D Systems ermittelt. […]

aktivem beta-Catenin = assay: Western blot of active beta-catenin in nasal polyp tissue samples; assay type: cell-based, Mensch; conditions: 100 µM, 24 Stunden incubation, versus medium controls (Figur 3)
Text: Proben von Nasenpolypen wurden in PBS gewaschen und vorsichtig homogenisiert. Es wurden Zellextrakte hergestellt und unter Verwendung von Lysepuffer 16 ("Human pluripotent stem cell array" (R&D Systems)) solubilisiert. Die Proteinkonzentrationen wurden bestimmt.
Lysate von Geweben wurden durch Erhitzen über einen Zeitraum von 5 Minuten in einfachem SDS-Probenpuffer (Carl Roth GmbH, Karlsruhe, Deutschland) denaturiert. Die Proteinkonzentrationen wurden mittels des Bradford-Tests bestimmt und jeweils 30 µg Gesamtprotein wurden zur SDS-Polyacrylamid-Gel Elektrophorese eingesetzt (Mini-Protean TGX®, Any kD, BioRad, Hercules, CA, USA) und anschließend auf Nitrozellulosemembranen übertragen. Die Übertragung der Proteine wurde mittels Ponceau-Färbung kontrolliert. […]
Um die Beladungsmenge jeder Spur zu bestimmen, wurden die Nitrozellulosemembranen über Nacht bei 4 °C mit einem primären Antikörper der GAPDH (Cell Signaling Technology Inc., Massachusetts, Katalognummer: 14C10) in einer Verdünnung von 1 : 1.000 inkubiert. […] Die Pixeldichten wurden quantifiziert und mittels Fusion FX7® unter Einsatz von Bio-1D Software® dokumentiert. […]

CC12CCC(CC1)C(C)(C)O2 [1,8-Cineol, 1,3,3-Trimethyl-2-oxabicyclo[2.2.2]octan]
zytotoxische Wirkung [1]: deutlich zytotoxischen Wirkung
SNOT-20-Score ([2]; first orienting evaluation, compared with preoperative results): deutliche Verbesserung
Rezidivpolyposis ([2]; follow-up examination after 6 months): lediglich bei einem Patienten eine beginnende geringfügige Rezidivpolyposis
gastrointestinale Nebenwirkungen ([2]; in vivo): Ein Patient
Expression von Phosphokinasen (Phosphokinasen): veränderte Expression
Expressionslevel von aktivem beta-Catenin (aktivem beta-Catenin): verschwanden aktive beta-Catenin-Proteine fast vollständig
